From ChEMBL document CHEMBL1201862, “PubChem BioAssay data set” (2004)
Activity calls are given as the source filed them.

What was measured:
[1] = target: Beta-2 adrenergic receptor (Homo sapiens, UniProt P07550); test: ADRB2 activation measured by internalization – cell-based, FAP fluorogen, flow cytometry, cherry pick 1, dose response (AID 588763); type: functional
[2] = viability loss in THP-1 monocytes – THP-1 cells, cytotoxicity control for Vif-APOBEC3G degradation inhibitor project, dose response (AID 1117359); type: functional; details: THP-1
[3] = target: T1, High affinity choline transporter 1 (Homo sapiens, UniProt Q9GZV3); test: human choline transporter blockers, potency – cell-based, 5-point CRC, membrane potential dye, dose response (AID 504840); type: functional
T1 sequence (Q9GZV3 whole entry): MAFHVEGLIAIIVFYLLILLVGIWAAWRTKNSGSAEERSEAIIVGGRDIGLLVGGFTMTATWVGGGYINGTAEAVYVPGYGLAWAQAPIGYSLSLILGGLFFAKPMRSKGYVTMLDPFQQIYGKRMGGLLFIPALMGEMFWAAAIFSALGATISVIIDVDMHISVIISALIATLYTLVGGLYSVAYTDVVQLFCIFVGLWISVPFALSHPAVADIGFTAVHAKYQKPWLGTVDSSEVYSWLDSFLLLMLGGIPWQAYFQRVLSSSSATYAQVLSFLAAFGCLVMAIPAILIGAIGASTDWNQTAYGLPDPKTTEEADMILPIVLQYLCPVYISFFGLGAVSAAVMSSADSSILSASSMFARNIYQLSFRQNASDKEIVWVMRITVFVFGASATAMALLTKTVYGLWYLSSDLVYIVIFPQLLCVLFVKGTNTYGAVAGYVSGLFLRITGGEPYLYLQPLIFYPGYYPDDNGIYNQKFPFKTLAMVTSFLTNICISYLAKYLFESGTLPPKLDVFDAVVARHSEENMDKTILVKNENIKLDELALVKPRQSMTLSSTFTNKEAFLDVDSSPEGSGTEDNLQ

[4] = target: T1, High affinity choline transporter 1; test: human choline transporter blockers, potency – cell-based, 10-point CRC, membrane potential dye, dose response (AID 588401); type: functional;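 note: membrane potential dye fluorescence of choline-evoked depolarization via CHT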
[5] = HEK-293T viability loss after treatment – luminescence, T-cell screen hits, cytotoxicity control for TCR NF-kB inhibitor project, dose response (AID 489026); type: functional, cell-based;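 note: cells exposed to compound about 14 hours before the viability readout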
[6] = target: T2, Protein skinhead-1 (Caenorhabditis elegans, UniProt P34707); type: functional
T2 sequence (P34707 whole entry): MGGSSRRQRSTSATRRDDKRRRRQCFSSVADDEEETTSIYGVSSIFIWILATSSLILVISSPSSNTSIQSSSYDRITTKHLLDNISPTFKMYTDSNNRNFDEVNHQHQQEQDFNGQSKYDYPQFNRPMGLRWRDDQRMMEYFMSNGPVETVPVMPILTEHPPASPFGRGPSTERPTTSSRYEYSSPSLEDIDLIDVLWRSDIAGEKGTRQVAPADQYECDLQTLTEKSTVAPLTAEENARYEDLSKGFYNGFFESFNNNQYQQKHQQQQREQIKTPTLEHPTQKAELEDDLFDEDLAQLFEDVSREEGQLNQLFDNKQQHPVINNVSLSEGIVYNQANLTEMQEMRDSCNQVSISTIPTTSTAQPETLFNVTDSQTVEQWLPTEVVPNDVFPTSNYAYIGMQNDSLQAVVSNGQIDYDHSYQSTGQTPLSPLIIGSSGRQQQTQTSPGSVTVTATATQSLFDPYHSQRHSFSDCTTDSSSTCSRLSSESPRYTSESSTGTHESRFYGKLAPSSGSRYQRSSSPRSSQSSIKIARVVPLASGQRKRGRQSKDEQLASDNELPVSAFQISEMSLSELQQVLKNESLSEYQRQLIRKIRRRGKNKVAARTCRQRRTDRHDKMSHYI

[7] = target: T3, Corticotropin-releasing factor receptor 2/Corticotropin-releasing factor-binding protein (Homo sapiens, UniProt P24387+Q13324); test: activators of CRF receptor 2 with binding protein – uHTS hits, confirmation (AID 602473); type: functional; details: read-out: EC50_Mean
T3 sequence (Q13324 whole entry): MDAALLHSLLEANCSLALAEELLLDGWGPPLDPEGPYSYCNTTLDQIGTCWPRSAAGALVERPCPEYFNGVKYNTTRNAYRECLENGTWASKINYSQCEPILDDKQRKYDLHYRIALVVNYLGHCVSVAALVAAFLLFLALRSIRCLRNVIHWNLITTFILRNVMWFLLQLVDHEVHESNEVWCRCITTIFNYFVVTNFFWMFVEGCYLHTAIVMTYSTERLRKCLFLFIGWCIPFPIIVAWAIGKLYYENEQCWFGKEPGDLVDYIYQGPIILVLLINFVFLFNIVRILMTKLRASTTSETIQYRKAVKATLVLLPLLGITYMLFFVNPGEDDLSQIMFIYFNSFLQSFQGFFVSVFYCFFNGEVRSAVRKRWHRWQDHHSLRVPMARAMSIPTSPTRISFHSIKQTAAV
T3 sequence (P24387 whole entry): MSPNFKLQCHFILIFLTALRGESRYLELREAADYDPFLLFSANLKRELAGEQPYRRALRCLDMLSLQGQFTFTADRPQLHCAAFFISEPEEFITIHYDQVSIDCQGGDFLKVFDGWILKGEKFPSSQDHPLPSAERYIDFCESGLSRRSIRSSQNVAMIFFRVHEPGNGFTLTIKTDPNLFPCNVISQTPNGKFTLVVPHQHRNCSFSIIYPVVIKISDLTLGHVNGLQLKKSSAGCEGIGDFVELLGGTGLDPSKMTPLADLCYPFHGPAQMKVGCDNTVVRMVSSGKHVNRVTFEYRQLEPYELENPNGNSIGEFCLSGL

[8] = target: T3, Corticotropin-releasing factor receptor 2/Corticotropin-releasing factor-binding protein; test: Dose Response confirmation of uHTS hits for small molecule antagonists of the CRF-binding protein and CRF-R2 receptor complex.; type: functional; details: read-out: IC50_Mean
[9] = tested on: BJ; test: BJ-TERT-LT-ST fibroblast viability loss – cell-based, RAS-independent, luminescence, dose response (AID 1935); type: functional; details: Homo sapiens;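 note: BJ fibroblasts immortalized with TERT plus LT and ST oncogenes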
[10] = alpha-synuclein stem-loop luciferase translation blockers – H4 neuroglioma cells, luminescence, confirmation (AID 1988); type: functional, cell-based
[11] = luciferase reporter signal suppression in cells – H4 neuroglioma cells, luminescence, dose response (AID 1990); type: functional, cell-based
[12] = DRD fibroblast viability loss – cell-based, non-viral oncogenic, luminescence, dose response (AID 1934); type: functional; details: Homo sapiens
[13] = tested on: INS1; test: INS-1E survival protection against cytokine death – cell-based, luminescence, retest, dose response (AID 449756); type: functional; details: Rattus norvegicus;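 note: cell death triggered by IL-1 beta plus TNF-alpha plus IFN-gamma mixture; protective hits raise ATP signal compared with cytokine alone wells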
[14] = Luminescence Cell-Based Dose Response HTS to Identify Inhibitors of 5'UTR Stem-Loop Driven Prion Protein mRNA Translation in H4 Neuroglioblastoma Cells. [Related pubchem assays: 1827 (Project Summary), 1813 (Primary HTS)]; type: functional
[15] = tested on: BJ; test: BJ-TERT fibroblast viability loss – cell-based, RAS-independent, luminescence, dose response (AID 1933); type: functional; details: Homo sapiens
[16] = tested on: BJ; test: cells; type: functional, cell-based; details: Homo sapiens
[17] = Luminescence Cell-Based Dose Retest to Confirm Inhibitors of Cancer Stem Cells. [Related pubchem assays (depositor defined):AID2717, AID2721]; type: functional; details: Homo sapiens
[18] = target: T4, Heat shock factor protein 1 (Mus musculus, UniProt P38532); test: decrease of HSF1-responsive luciferase luminescence – cell-based, NIH3T3, dose retest, confirmation (AID 2382); type: functional;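 note: NIH3T3 fibroblasts with HSF1-driven luciferase reporter stressed by proteasome inhibitor MG132; luminescence from HSF1-driven luciferase expression after 8 hours of MG132 stress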
T4 sequence (P38532 whole entry): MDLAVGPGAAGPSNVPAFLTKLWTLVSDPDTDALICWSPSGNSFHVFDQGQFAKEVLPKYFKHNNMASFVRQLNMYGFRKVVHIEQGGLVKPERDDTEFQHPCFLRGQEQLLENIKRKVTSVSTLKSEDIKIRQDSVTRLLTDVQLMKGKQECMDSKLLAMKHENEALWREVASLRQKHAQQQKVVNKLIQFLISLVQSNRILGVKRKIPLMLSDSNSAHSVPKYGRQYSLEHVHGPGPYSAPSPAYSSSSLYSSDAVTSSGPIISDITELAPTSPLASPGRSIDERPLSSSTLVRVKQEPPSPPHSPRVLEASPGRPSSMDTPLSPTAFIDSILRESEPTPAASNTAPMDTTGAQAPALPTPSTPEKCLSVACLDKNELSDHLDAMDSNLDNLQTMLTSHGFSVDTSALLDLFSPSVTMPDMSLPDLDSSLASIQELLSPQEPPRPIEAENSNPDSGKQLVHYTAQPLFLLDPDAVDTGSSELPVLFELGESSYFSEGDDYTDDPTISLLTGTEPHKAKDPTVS

Sequence of Beta-2 adrenergic receptor (P07550 whole entry): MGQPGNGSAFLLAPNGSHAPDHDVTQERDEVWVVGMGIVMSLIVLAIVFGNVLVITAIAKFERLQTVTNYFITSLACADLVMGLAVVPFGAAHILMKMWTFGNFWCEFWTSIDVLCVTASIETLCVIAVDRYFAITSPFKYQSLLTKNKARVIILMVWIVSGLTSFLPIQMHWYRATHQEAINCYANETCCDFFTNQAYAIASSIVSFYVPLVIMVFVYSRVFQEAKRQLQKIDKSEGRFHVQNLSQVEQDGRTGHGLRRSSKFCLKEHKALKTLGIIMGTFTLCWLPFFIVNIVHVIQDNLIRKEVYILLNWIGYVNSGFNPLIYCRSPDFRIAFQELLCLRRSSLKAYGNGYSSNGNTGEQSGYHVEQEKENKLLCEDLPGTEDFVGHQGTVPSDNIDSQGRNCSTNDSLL

COc1ccc([C@H]2/C=C\CN(Cc3ccc(N(C)C)cc3)[C@@H](C)C(=O)N2Cc2ccc(F)cc2)cc1
EC50 [1]: 4.36 µM (active)

CCc1ccc(N(C2C=CS(=O)(=O)C2)S(=O)(=O)c2ccc(C)cc2)cc1 (stereo not given)
CC50 [2]: > 40 µM (active)

Cn1c2c(c(=O)c3ccccc31)CCCC2
IC50 [3]: 6.99 µM (active)
IC50 [4]: 4.22 µM (active)

CCN(CC)P(=S)(c1c(C)nc2ccccn12)c1c(C)nc2ccccn12
CC50 [2]: 13.9 µM (active)

COC(=O)Cn1ccc(N(C)C)c(C#N)c1=O
IC50 [3]: 4.07 µM (active)
IC50 [4]: 2.89 µM (active)

COc1ccc(C(=O)c2ccc(N(C)C)cc2)c(OC)c1
IC50 [5]: > 80 µM (inactive)

c1cn(C23CC4CC(CC(C4)C2)C3)cn1
IC50 [3]: 7.43 µM (active)
IC50 [4]: 3.57 µM (active)

COc1ccc(Cc2nc(-c3ccc(Cl)cc3)no2)cc1
IC50 [6]: > 100 µM (inactive)
EC50 [7]: > 53 µM (inactive)
IC50 [8]: > 47.1 µM (inactive)

COc1ccc(/C=C/C(=O)c2ccc([N+](=O)[O-])o2)cc1OC
EC50 [9]: 1.15 µM (inconclusive)
EC50 [10]: > 120 µM (not active)
EC50 [11]: 9.14 µM (active)
EC50 [12]: 2.58 µM (inconclusive)
AC50 [13]: 3.94 µM (active)
EC50 [14]: 10.5 µM (active)
EC50 [15]: > 150 µM (not active)
EC50 [16]: > 150 µM (inconclusive)
AC50 [17]: 2.09 µM (active)

COc1ccc(C2Nc3ccccc3C(=O)N2c2ccc(Cl)cc2)cc1Cn1cc([N+](=O)[O-])cn1 (stereo not given)
CC50 [2]: > 40 µM (active)

CCCCOc1cccc(C(=O)Nc2ccc(NC(=O)c3cccs3)cc2)c1
EC50 [1]: 0.256 µM (active)
EC50 [18]: 9.51 µM (active)
